Laboratory results as given in article PMC9260506, “Identification of Highly Cross-Reactive Mimotopes for a Public T Cell Response in Murine Melanoma” (Frontiers in Immunology, 2022).

How the values were obtained:
[1] = molecular target: 7PPG2 TCR, recombinant soluble (mouse) (UniProt P01849); experiment: SPR; conditions: peptide-MHC
[2] = system: 7PPG2-transduced 58^-/- T cells; experiment: T cell activation, peptide-loaded DC2.4 co-culture, IL-2 ELISA (7PPG2); type: cell-based, murine; conditions: DC2.4 cells loaded with various peptide concentrations 2-3 h, 24 h co-culture
Method: (§1) T cell line generation: For creation of T cell lines, TCR alpha chain was linked to TCR beta chain by a P2A sequence, followed by EGFP fluorescent protein sequence, in the MP71 retroviral vector. 80% confluent HEK293-T cells were transfected with 2 μg of TCR plasmid and 1 μg pCL-Eco helper plasmid with 6 μg (3× DNA mass) PEI (Santa Cruz Biotech) to create retrovirus. 2 days later, the supernatant was then used to transduce CD8^+ 58^-/^- cells with 0.8 μg/mL polybrene (Santa Cruz Biotech). Cells were spinfected at 1000×g and 32°C for 1.5 hours. 2 days later, transduction was assessed by expression of EGFP and by staining with an antibody against murine TCR β chain. If necessary, cells were sorted on EGFP on a FACSAria (BD) to obtain a >95% transduced population.
(§2) DC co-culture: 25,000 DC2.4 cells per well were incubated with various concentrations of peptide in 100 μL RPMI complete media for 2-3 hours before the addition of T cells. 25,000 T cells per well were added in 100 μL RPMI complete media in 96 well plates.
(§3) After 24 hours, plates were spun down at 500×g for 5 minutes, and 2×100 μL samples of supernatant were saved and frozen at -80°C. T cell activation was assessed using mouse IL-2 ELISA kits (Invitrogen), with samples diluted 1:2 - 1:20 for comparison to the standard curve. Absorbance values were measured with a Tecan Infinite m200 Pro plate reader.

p15E-pulsed splenocytes = experiment: In vivo killing assay of peptide-pulsed donor splenocytes; set-up: species or system C57BL/6 mice; conditions: day 36 spleens, 24 h after i.v. injection of about 1:1 CFSE-dyed p15E-pulsed and violet-dyed OVA-pulsed splenocytes; amphiphile vaccines days 0, 14, 28; N=3 mice/group
Method: (§4) MSA and TTR long peptide fusions were produced in house by the Wittrup lab as previously described ([23]). Long peptide-amphiphile fusion vaccines were obtained from Northwestern University Peptide Synthesis Core (p15E and mimotopes) or produced in house by the Irvine lab as previously described (OVA amph) ([16], [22]). Lipo-CpG was produced in house by the Irvine lab as previously described ([16], [22]). 5 nmol of vaccine and 1.24 nmol of lipo-CpG per injection were used in a volume of 100 μL PBS, sterile filtered, and injected subcutaneously at the tail base, 50 μL per side, using 31G insulin syringes. Mice were primed and then boosted at 2 and 4 weeks following prime (n=5 per group).
Experimental mice were vaccinated as described above. A separate group of age-matched female C57BL/6 donor mice were euthanized and spleens removed. In a sterile hood, single cell suspensions were created by mashing spleens through 70 μm mesh filters. Red blood cells were lysed using ACK lysis buffer (Thermo), and cells were washed twice with PBS. […] 24 hours later, experimental mice were euthanized and splenocytes analyzed to compare ratios of CFSE-dyed to Violet-dyed cells. Samples were run on a Cytoflex and data analyzed in FlowJo v10.

CD8^+ T cells = experiment: Intracellular cytokine staining of peripheral blood after vaccination; type: in vivo, C57BL/6 mice; conditions: for CD8^+ T cell reactivity to p15E stimulation (ICS): Figure 7C
Text: as §4, with “5 nmol of vaccine and 1.24 nmol of lipo-CpG per injection were used in a volume of 100 μL PBS, sterile filtered, and injected subcutaneously at the tail base, 50 μL per side, using 31G insulin syringes.” left out
One week following each vaccine boost, blood samples were drawn retro-orbitally from each mouse. 50-80 μL was used per well for stimulation with peptide, and excess blood from each group was pooled and used for a positive and negative control well per group. Red blood cells were lysed with ACK lysis buffer (Thermo), and then cells were washed once with FACS buffer. In 100 μL/well RPMI complete media, sample wells were stimulated with 10 μg/mL peptide (p15E, 7PPG2-mim6, or 7PPG4-mim2), and positive control wells were stimulated with 10 ng/mL PMA and 10 μg/mL ionomycin. Cells were stimulated for two hours before 1 uL/well brefeldin A (BD GolgiPlug) was added, and then cells were incubated for an additional four hours. Cells were washed twice with cold PBS and then stained with Zombie Aqua 1:1000 and Fc block 1:100 in 100 μL/well PBS for 15 minutes at room temperature. Cells were then stained with CD8 APC 1:100 in 100 μL/well FACS buffer for 20 minutes at room temperature. Cells were fixed and permeabilized using 100 μL/well of CytoFix/CytoPerm solution (BD) for 20 minutes at 4°C. Following two washes with Perm/Wash buffer (BD), cells were stained with IFN-γ PE and TNF-α AF488 1:75 each in 50 μL/well Perm/Wash buffer for 30 minutes at 4°C. Following two washes with FACS buffer, samples were run on an LSR II (BD) or Cytoflex (Beckman Coulter) and data analyzed in FlowJo v10. Outliers were identified using the ROUT method with Q = 1% (GraphPad Prism 9).

[3] = system: 7PPG4-transduced 58^-/- T cells; experiment: T cell activation, peptide-loaded DC2.4 co-culture, IL-2 ELISA (7PPG4); type: cell-based, murine; conditions: DC2.4 cells loaded with various peptide concentrations 2-3 h, 24 h co-culture
Method: as §1, §2, §3

B16F10 melanoma cells = experiment: Prophylactic vaccination and B16F10 tumor challenge; type: in vivo, C57BL/6 mice
Method: as §4
Two weeks after the second vaccine boost, 10^5 B16F10 cells in 100 μL PBS were injected subcutaneously on the right flank using 29G insulin syringes. Tumor areas were calculated by multiplying length and width taken by caliper measurement every other day beginning three days post-tumor inoculation. Mice were euthanized when tumor area exceeded 100 mm^2.

[4] = molecular target: p15E peptide presented by H-2K^b, refolded pMHC (mouse | human | murine leukemia virus); experiment: SPR
[5] = molecular target: 7PPG4 TCR, recombinant soluble (mouse) (UniProt P01849); experiment: SPR; conditions: peptide-MHC
7PPG4 TCR = experiment: Steady-state surface plasmon resonance, pMHC on immobilized 7PPG4 TCR; type: binding, mouse; conditions: Figure 5C
Text: Recombinant soluble TCRs used for yeast library selections and surface plasmon resonance experiments were produced using a baculovirus expression system in Hi5 insect cells. TCR alpha chain extracellular domain sequences were cloned into pAcGP67a vector containing a 3C protease site ([…]) followed by an acidic leucine zipper, AviTag biotinylation site ([…]), and poly-histidine tag (6×His). TCR beta chain extracellular domain sequences were cloned into pAcGP67a vector containing a 3C site followed by a basic leucine zipper and poly-histidine tag. 2 μg of each plasmid was transfected into SF9 insect cells with BestBac 2.0 linearized baculovirus DNA (Expression Systems) using Cellfectin II reagent (Invitrogen). SF9s were then infected with 1:1000 primary transfection supernatant to amplify the virus. Titration of alpha and beta chain viruses was performed to identify the optimal ratio of the two viruses for heterodimer formation. Protein was then produced by large scale infection of Hi5 cells as previously described ([10]). Briefly, secreted protein was purified using HisPur Ni-NTA resin (Thermo) for immobilized metal affinity chromatography (IMAC) and biotinylated overnight at 4°C using biotin (Avidity), ATP, and BirA ligase. […] Biotinylation efficiency was assessed by adding streptavidin (ThermoFisher) to ~2 ug of protein and running an SDS-PAGE gel. […]

## 7PPG4-mim2 mimotope () presented by H-2K^b, refolded pMHC (from UniProt P61769 21-119)
[1]
  Kd: 42 µM

## KSPWFTTL [p15E, previously identified MLVenv peptide presented by the class I MHC H-2K^b]
[2]
  T cell activation (IL-2 secretion): activated in a dose-dependent manner
p15E-pulsed splenocytes
  Fraction of p15E-pulsed cells remaining: little difference in fraction of p15E-pulsed cells compared to the control group
CD8^+ T cells; days 21 and 35, 5 nmol amphiphile vaccine + lipo-CpG, compared with adjuvant-only control
  CD8^+ T cell reactivity to p15E stimulation (ICS): did not show any significant reactivity compared to the control group
[3]
  T cell activation (IL-2 secretion): activated in a dose-dependent manner
B16F10 melanoma cells; first experiment, 1×10^5 B16F10 cells six weeks after prime, amphiphile vaccines, euthanized at tumor area >100 mm^2, N=5, Figure 7F
  Survival after tumor challenge: identical survival curves

## 7PPG2 TCR, recombinant soluble (from UniProt P01849)
[4]
  Kd: 23 µM

## SIINFEKL [OVA]
p15E-pulsed splenocytes
  Fraction of p15E-pulsed cells remaining: high fraction of p15E-pulsed cells remaining
CD8^+ T cells; killing-assay study, day 35, OVA amphiphile vaccine day 0, boosts days 14 and 28, N=3 mice/group, Supplementary Figure 6B
  CD8^+ T cell reactivity to OVA (ICS): 20%

## 7PPG2-mim6 mimotope () presented by H-2K^b, refolded pMHC (from UniProt P61769 21-119)
[1]
  Kd: 19 µM
[5]
  Kd: > 100 µM

## VSPWFNTL [7PPG2-mim6, p15E mimotope identified from yeast display pMHC library selection with 7PPG2 TCR]
[2]
  T cell activation (IL-2 secretion): much more potently than p15E
7PPG4 TCR; mimotope or p15E peptide displayed by H-2K^b as analyte, immobilized TCR, 25°C, steady state
  Kd: > 100 µM
CD8^+ T cells; amphiphile vaccine + lipo-CpG, days 21 and 35, Supplementary Figure 7B
  CD8^+ T cell reactivity to 7PPG4-mim2 stimulation (ICS): minimal reactivity to 7PPG4-mim2

## 7PPG3 TCR, recombinant soluble (from UniProt P01849)
[4]
  Kd: 20 µM

## 7ELG1 TCR, recombinant soluble (from UniProt P01849)
[4]
  Kd: 39 µM

## KSPWFITL [7PPG4-mim2, p15E mimotope identified from yeast display pMHC library selection with 7PPG4 TCR]
7PPG4 TCR; SPR, 5 μM compared to 26 μM
  affinity for 7PPG4 relative to p15E: five-fold higher affinity
CD8^+ T cells; amphiphile vaccine + lipo-CpG, days 21 and 35, Supplementary Figure 7A
  CD8^+ T cell reactivity to 7PPG2-mim6 stimulation (ICS): some cross reactivity to 7PPG2-mim6 stimulation
CD8^+ T cells; day 21, 5 nmol amphiphile vaccine + lipo-CpG, Supplementary Figure 7B, N=5
  CD8^+ T cells reacting to 7PPG4-mim2 stimulation (ICS): 40 % of CD8^+ T cells
CD8^+ T cells; day 35, 5 nmol amphiphile vaccine + 1.24 nmol lipo-CpG, boosts days 14 and 28, N=5
  CD8^+ T cell reactivity to p15E stimulation (ICS): 40%
[3]
  T cell activation (IL-2 secretion): much more potently than p15E
B16F10 melanoma cells; all in vivo studies with the amphiphile vaccine
  Autoreactivity in vivo: did not show evidence of deleterious autoreactivity

## SIYRYYGL [2C TCR cognate antigen, control peptide]
[2]
  T cell activation (IL-2 secretion): no activation
[3]
  T cell activation (IL-2 secretion): no activation
